Patent US11477982B2, “2-amino-5-oxyalkyl-pyrimidine derivatives and their use for controlling undesired plant growth” (Bayer CropScience Aktiengesellschaft, priority 2017, dated 2022)

Experiments:
Experiment in all cases: Pre-emergence herbicidal effect
Assay type in all cases: in vivo
VERPE: Veronica persica = details: dosage 320 g/ha
From the text: (§1) 1. Pre-Emergence Herbicidal Effect and Crop Plant Compatibility
(§2) Seeds of monocotyledonous and dicotyledonous weed plants and crop plants are placed in plastic or wood fiber pots and covered with soil. The compounds of the invention, formulated in the form of wettable powders (WP) or as emulsion concentrates (EC), are then applied onto the surface of the covering soil as aqueous suspension or emulsion with addition of 0.5% additive at a water application rate of 600 l/ha (converted).
(§3) After the treatment, the pots are placed in a greenhouse and kept under good growth conditions for the trial plants. After about 3 weeks, the effect of the preparations is scored visually in comparison with untreated controls as percentages. For example, 100% activity=the plants have died, 0% activity=like control plants.

[1] = test system: AMARE: Amaranthus retroflexus; details: pre-emergence; dosage 320 g/ha
From the text: as §1, §2, §3

[2] = test system: POLCO: Polygonum convolvulus; details: dosage 320 g/ha
From the text: as §1, §2, §3

[3] = test system: MATIN: Matricaria inodora; details: pre-emergence; dosage 320 g/ha
From the text: as §1, §2, §3

VIOTR: Viola tricolor = details: dosage 320 g/ha
From the text: as §1, §2, §3

CC(C)(O)c1cnc(NC2CCOc3ccccc32)nc1 (racemic) [Example 1.9]
Herbicidal action against VERPE (VERPE: Veronica persica): 100%
Herbicidal action against AMARE [1]: 100%
Herbicidal action against POLCO [2]: 100%
Herbicidal action against MATIN [3]: 100%
Herbicidal action against VIOTR (VIOTR: Viola tricolor): 100%

Cc1cccc2c1CCCC2Nc1ncc(C(C)(C)O)cn1 (racemic) [Example 1.41]
Herbicidal action against VERPE (VERPE: Veronica persica): 100%
Herbicidal action against AMARE [1]: 100%
Herbicidal action against POLCO [2]: 100%
Herbicidal action against MATIN [3]: 100%
Herbicidal action against VIOTR (VIOTR: Viola tricolor): 100%

COc1cccc2c1CCCC2Nc1ncc(C(C)(C)O)c(C)n1 (racemic) [Example 1.44]
Herbicidal action against VERPE (VERPE: Veronica persica): 100%
Herbicidal action against AMARE [1]: 100%
Herbicidal action against POLCO [2]: 100%
Herbicidal action against MATIN [3]: 100%
Herbicidal action against VIOTR (VIOTR: Viola tricolor): 100%

Cc1ccc2c(c1)[C@H](Nc1ncc(C(C)OCc3ccc(F)cc3)cn1)[C@@H](C)C2 (stereo partly drawn) [Example 1.3]
Herbicidal action against VERPE (VERPE: Veronica persica): 100%
Herbicidal action against AMARE [1]: 100%
Herbicidal action against POLCO [2]: 80%
Herbicidal action against MATIN [3]: 100%
Herbicidal action against VIOTR (VIOTR: Viola tricolor): 100%

Cc1ccc2c(c1)[C@H](Nc1ncc(C(C)(C#N)O[Si](C)(C)C)cn1)[C@@H](C)C2 (stereo partly drawn) [Example 1.16]
Herbicidal action against VERPE (VERPE: Veronica persica): 100%
Herbicidal action against AMARE [1]: 100%
Herbicidal action against POLCO [2]: 100%
Herbicidal action against MATIN [3]: 100%
Herbicidal action against VIOTR (VIOTR: Viola tricolor): 100%

Cc1ccc2c(c1)[C@H](Nc1ncc(C(C)O)c(C(C)F)n1)[C@@H](C)C2 (stereo partly drawn) [Example 1.19]
Herbicidal action against VERPE (VERPE: Veronica persica): 100%
Herbicidal action against AMARE [1]: 100%
Herbicidal action against POLCO [2]: 100%
Herbicidal action against MATIN [3]: 100%
Herbicidal action against VIOTR (VIOTR: Viola tricolor): 100%

Cc1ccc2c(c1)[C@H](Nc1ncc(C(C)(O)c3ccccc3)cn1)[C@@H](C)C2 (stereo partly drawn) [Example 1.21]
Herbicidal action against VERPE (VERPE: Veronica persica): 100%
Herbicidal action against AMARE [1]: 100%
Herbicidal action against POLCO [2]: 100%
Herbicidal action against MATIN [3]: 100%
Herbicidal action against VIOTR (VIOTR: Viola tricolor): 100%

Cc1ccc2c(c1)[C@H](Nc1ncc(C(C)(O)CC(C)C)cn1)[C@@H](C)C2 (stereo partly drawn) [Example 1.25]
Herbicidal action against VERPE (VERPE: Veronica persica): 100%
Herbicidal action against AMARE [1]: 100%
Herbicidal action against POLCO [2]: 100%
Herbicidal action against MATIN [3]: 100%
Herbicidal action against VIOTR (VIOTR: Viola tricolor): 100%

Cc1ccc2c(c1)[C@H](Nc1ncc(C(C)(O)Cc3ccccc3)cn1)[C@@H](C)C2 (stereo partly drawn) [Example 1.26]
Herbicidal action against VERPE (VERPE: Veronica persica): 100%
Herbicidal action against AMARE [1]: 100%
Herbicidal action against POLCO [2]: 100%
Herbicidal action against MATIN [3]: 100%
Herbicidal action against VIOTR (VIOTR: Viola tricolor): 100%

CC(C)=CC(C)(O)c1cnc(N[C@H]2c3cc(C)ccc3C[C@@H]2C)nc1 (stereo partly drawn) [Example 1.27]
Herbicidal action against VERPE (VERPE: Veronica persica): 100%
Herbicidal action against AMARE [1]: 100%
Herbicidal action against POLCO [2]: 100%
Herbicidal action against MATIN [3]: 100%
Herbicidal action against VIOTR (VIOTR: Viola tricolor): 100%

C=CCCC(C)(O)c1cnc(N[C@H]2c3cc(C)ccc3C[C@@H]2C)nc1 (stereo partly drawn) [Example 1.28]
Herbicidal action against VERPE (VERPE: Veronica persica): 100%
Herbicidal action against AMARE [1]: 100%
Herbicidal action against POLCO [2]: 100%
Herbicidal action against MATIN [3]: 100%
Herbicidal action against VIOTR (VIOTR: Viola tricolor): 100%

Cc1nc(N[C@@H]2CCc3ccccc32)ncc1C(C)O (stereo partly drawn) [Example 1.47]
Herbicidal action against VERPE (VERPE: Veronica persica): 100%
Herbicidal action against AMARE [1]: 100%
Herbicidal action against POLCO [2]: 100%
Herbicidal action against MATIN [3]: 100%
Herbicidal action against VIOTR (VIOTR: Viola tricolor): 100%
